How the values were obtained:
Assay in all cases: relative viability (nuclei count vs DMSO), 5 days (fraction); higher = more cells survive
[1] = compound: O=S(=O)(c1ccccc1)N(CC(F)(F)F)c1ccc(C(O)(C(F)(F)F)C(F)(F)F)cc1 + Nc1ncn([C@H]2C[C@H](O)[C@@H](CO)O2)c(=O)n1 [Decitabine] (partner 2 µM)
Summary of the method: (§1)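 Lung cancer cell lines in 1536-well plates were dosed by pin tool the day after seeding, either with one drug alone or with a fixed anchor-drug dose plus five library-drug doses (not always all listed) in √10 steps. After 5 days, cells were fixed and their nuclei stained in one step (final 0.05% Triton X-100, 1% formaldehyde, 1 ug/ml Hoechst), then counted on 4× images. Relative viability is the nuclei count in treated wells divided by that in vehicle wells. Values are medians of duplicate plates.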

[2] = compound: O=S(=O)(c1ccccc1)N(CC(F)(F)F)c1ccc(C(O)(C(F)(F)F)C(F)(F)F)cc1 + CC(C)C[C@H](NC(=O)[C@H](Cc1ccccc1)NC(=O)c1cnccn1)B(O)O [Bortezomib] (partner 0.002 µM)
Summary of the method: as §1

[3] = compound: O=S(=O)(c1ccccc1)N(CC(F)(F)F)c1ccc(C(O)(C(F)(F)F)C(F)(F)F)cc1 + CS(=O)(=O)N1CCN(Cc2cc3nc(-c4cccc5[nH]ncc45)nc(N4CCOCC4)c3s2)CC1 [Pictilisib] (partner 1 µM)
Summary of the method: as §1

[4] = compound: O=S(=O)(c1ccccc1)N(CC(F)(F)F)c1ccc(C(O)(C(F)(F)F)C(F)(F)F)cc1 + CC1(C)CCC(c2ccc(Cl)cc2)=C(CN2CCN(c3ccc(C(=O)NS(=O)(=O)c4ccc(N[C@H](CCN5CCOCC5)CSc5ccccc5)c(S(=O)(=O)C(F)(F)F)c4)cc3)CC2)C1 [Navitoclax] (partner 0.5 µM)
Summary of the method: as §1

[5] = compound: O=S(=O)(c1ccccc1)N(CC(F)(F)F)c1ccc(C(O)(C(F)(F)F)C(F)(F)F)cc1 + C[C@@H](Oc1cc(-c2cnn(C3CCNCC3)c2)cnc1N)c1c(Cl)ccc(F)c1Cl [Crizotinib] (partner 1 µM)
Summary of the method: as §1

RO-3306 + Pemetrexed = compound: C1=CC2=C(C=CC(=C2)C=C3C(=O)NC(=NCC4=CC=CS4)S3)N=C1 [RO-3306] + Nc1nc2[nH]cc(CCc3ccc(C(=O)N[C@@H](CCC(=O)O)C(=O)O)cc3)c2c(=O)[nH]1 [Pemetrexed] (partner 0.2 µM)
Summary of the method: as §1

Row | Cell Line | relative viability ([1]; first compound 0.8 µM) | relative viability ([1]; first compound 2.53 µM) | relative viability ([1]; first compound 8 µM) | relative viability ([2]; first compound 0.8 µM) | relative viability ([2]; first compound 2.53 µM) | relative viability ([2]; first compound 8 µM) | relative viability ([3]; first compound 0.8 µM) | relative viability ([3]; first compound 2.53 µM) | relative viability ([3]; first compound 8 µM) | relative viability ([4]; first compound 0.8 µM) | relative viability ([4]; first compound 2.53 µM) | relative viability ([4]; first compound 8 µM) | relative viability ([5]; first compound 0.8 µM) | relative viability ([5]; first compound 2.53 µM) | relative viability ([5]; first compound 8 µM) | relative viability (RO-3306 + Pemetrexed; first compound 0.01 µM) | relative viability (RO-3306 + Pemetrexed; first compound 0.03162 µM) | relative viability (RO-3306 + Pemetrexed; first compound 0.1 µM) | relative viability (RO-3306 + Pemetrexed; first compound 0.3162 µM) | relative viability (RO-3306 + Pemetrexed; first compound 1 µM)
1 | EMC-BAC-2 | 0.973 | 0.908 | 0.974 | 1.07 | 1.1 | 1.02 | 0.626 | 0.561 | 0.634 | 1.25 | 1.21 | 1.13 | 0.844 | 0.731 | 0.577 | 0.427 | 0.423 | 0.431 | 0.458 | 0.394
2 | NCI-H520 | 0.457 | 0.478 | 0.493 | 0.962 | 0.785 | 0.626 | 0.31 | 0.258 | 0.387 | 0.943 | 1.3 | 1.38 | 0.939 | 0.767 | 0.855 | 0.811 | 0.67 | 0.714 | 0.646 | 0.727
3 | NCI-H1993 | 0.515 | 0.563 | 0.579 | 1.12 | 0.824 | 1.03 | 0.772 | 0.782 | 1.07 | 0.867 | 0.691 | 0.788 | 0.855 | 0.686 | 0.799 | 0.627 | 0.5 | 0.624 | 0.573 | 0.539
4 | NCI-H2126 | 0.655 | 0.573 | 0.533 | 1.26 | 1.1 | 1.12 | 0.489 | 0.513 | 0.5 | 0.892 | 0.824 | 0.877 | 1.08 | 1.02 | 1.03 | 0.673 | 0.671 | 0.707 | 0.735 | 0.676
5 | NCI-H441 | 0.238 | 0.212 | 0.21 | 0.737 | 0.479 | 0.597 | 0.523 | 0.401 | 0.495 | 0.411 | 0.604 | 0.613 | 0.992 | 0.869 | 0.717 | 0.266 | 0.276 | 0.228 | 0.235 | 0.23
6 | SW 1573 | 0.542 | 0.543 | 0.541 | 1.34 | 0.936 | 0.811 | 0.504 | 0.38 | 0.45 | 1.26 | 0.874 | 0.641 | 0.709 | 0.75 | 0.636 | 0.893 | 0.744 | 0.697 | 0.9 | 0.67
7 | NCI-H322M | 0.685 | 0.721 | 0.663 | 1.48 | 1.02 | 1.23 | 0.551 | 0.529 | 0.541 | 1.29 | 1.12 | 1.2 | 0.981 | 0.835 | 0.743 | 0.624 | 0.613 | 0.574 | 0.695 | 0.592
8 | ChaGo-K-1 | 0.746 | 0.497 | 0.49 | 1.1 | 0.933 | 1.47 | 0.647 | 0.693 | 1.24 | 0.978 | 1.02 | 1.59 | 1.31 | 1.07 | 0.613 | 0.319 | 0.266 | 0.331 | 0.259 | 0.249
9 | EKVX | 0.405 | 0.286 | 0.209 | 1.1 | 0.918 | 1.15 | 0.367 | 0.363 | 0.303 | 0.939 | 0.918 | 0.868 | 1.09 | 0.85 | 0.898 | 0.416 | 0.306 | 0.405 | 0.444 | 0.454
10 | NCI-H1355 | 0.354 | 0.382 | 0.342 | 1.39 | 1.12 | 1.1 | 0.415 | 0.389 | 0.491 | 1.09 | 0.754 | 0.826 | 1.22 | 0.98 | 0.935 | 1.15 | 0.976 | 0.961 | 0.97 | 1.05
11 | NCI-H2085 | 0.508 | 0.539 | 0.501 | 1.12 | 0.943 | 1.02 | 0.428 | 0.543 | 0.455 | 1.14 | 1 | 1.03 | 0.836 | 0.852 | 0.844 | 0.958 | 0.859 | 0.803 | 0.907 | 0.962
12 | LOU-NH91 | 0.846 | 0.823 | 0.894 | 0.536 | 0.51 | 0.484 | 0.539 | 0.564 | 0.515 | 0.73 | 0.666 | 0.717 | 0.748 | 0.775 | 0.753 | 0.354 | 0.346 | 0.346 | 0.399 | 0.373
13 | NCI-H1975 | 0.453 | 0.545 | 0.472 | 0.327 | 0.415 | 0.299 | 0.28 | 0.264 | 0.249 | 1.29 | 1.11 | 1.12 | 1.03 | 1.01 | 0.919 | 0.28 | 0.269 | 0.303 | 0.321 | 0.302
14 | NCI-H23 | 0.292 | 0.28 | 0.352 | 1.45 | 1.23 | 1.09 | 0.641 | 0.521 | 0.538 | 1.11 | 0.804 | 0.817 | 0.471 | 0.452 | 0.513 | 0.695 |  | 0.723 | 0.591 | 0.617
15 | HCC-366 | 0.394 | 0.376 | 0.242 | 1.23 | 1.08 | 1.08 | 0.181 | 0.165 | 0.135 | 1.19 | 1.03 | 1.03 | 0.903 | 0.54 | 0.314 | 0.215 | 0.194 | 0.198 | 0.137 | 0.213

From the supplement of paper PMC10307832
